Experiment [1] concerns the target Bovine Serum Albumin (BSA) (Bos taurus, UniProt P02769). In words: SPR binding of ferulic acid to pre-immobilized BSA. The note with it: 10, 20, and 50 μM injected; flow rate 1 mL/h. As to the method:
By injecting solutions containing different concentrations of FA and recording the resultant sensorgrams, the binding constant between FA and BSA was measured. […] Three different FA concentrations (10, 20, and 50 μM) were injected. A flow rate of 1 mL/h was used. [drawing 1] [drawing] Representative SPR sensorgrams showing binding of ferulic acid (structure on the left) onto pre-immobilized BSA molecules.
(In SPR one partner is held on a chip, and binding of the other changes the refractive index at the surface.)

For experiment [2], the target named is TrpS protein (tryptophanyl tRNA synthetase) (Escherichia coli, UniProt P00954). Put plainly: Target-inhibitor interaction by SPR. It is filed as binding. The source says:
(§1) We have examined specific binding interactions between select target proteins and their specific inhibitors. […] [drawing]

The test system of experiment [3] is A. baumannii clinical isolate LAC 11. Put plainly: Antibiotic susceptibility profile. It is filed as cell-based, Acinetobacter baumannii. Also on record: key: Resistance; Intermediate; Susceptible. In a few lines:
(§2)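 Isolates were collected from nosocomial infections in two US cities (Los Angeles County, New York City). Antibiotics lacking A. baumannii-specific breakpoints were excluded from testing. Susceptibility was then scored as R, I or S.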

Experiment [4] concerns A. baumannii clinical isolate NY G. Put plainly: Antibiotic susceptibility profile. It is filed as cell-based, Acinetobacter baumannii. Also noted: key: Resistance; Intermediate; Susceptible. The procedure, abridged:
as §2

Experiment [5] concerns A. baumannii clinical isolate NY E. In words: Antibiotic susceptibility profile. The experiment is classed as cell-based, Acinetobacter baumannii. Also on record: key: Resistance; Intermediate; Susceptible. In a few lines: as §2
For experiment [6], the system named is A. baumannii clinical isolate LAC 03. Put plainly: Antibiotic susceptibility profile. The experiment is classed as cell-based, Acinetobacter baumannii. Also noted: key: Resistance; Intermediate; Susceptible. The procedure, abridged: as §2
For experiment [7], the system named is A. baumannii clinical isolate LAC 02. In words: Antibiotic susceptibility profile. Also noted: key: Resistance; Intermediate; Susceptible. It is filed as cell-based, Acinetobacter baumannii. In a few lines:
as §2

For experiment [8], the system named is A. baumannii reference strain 17978. Put plainly: Antibiotic susceptibility profile. It is filed as cell-based, Acinetobacter baumannii. Also noted: key: Resistance; Intermediate; Susceptible. The following applies: strain 17978 (ATCC). In a few lines:
(§3)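 Clinical isolates from nosocomial infections in New York City and Los Angeles, tested alongside reference strains against only antibiotics having A. baumannii breakpoints; each scored R (resistant), I (intermediate) or S (susceptible).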

Experiment [9] has as its system A. baumannii clinical isolate NY C. In words: Antibiotic susceptibility profile. The experiment is classed as cell-based, Acinetobacter baumannii. Also on record: key: Resistance; Intermediate; Susceptible. The procedure, abridged:
as §2

Experiment [10] relates to A. baumannii reference strain SDF. Put plainly: Antibiotic susceptibility profile. The experiment is classed as cell-based, Acinetobacter baumannii. Also on record: key: Resistance; Intermediate; Susceptible. The procedure, abridged: as §3
The subject of experiment [11] is A. baumannii reference strain AYE. Put plainly: Antibiotic susceptibility profile. It is filed as cell-based, Acinetobacter baumannii. Also on record: key: Resistance; Intermediate; Susceptible. The procedure, abridged:
as §3

Experiment [12] relates to A. baumannii reference strain 15839. Put plainly: Antibiotic susceptibility profile. Also noted: key: Resistance; Intermediate; Susceptible. The following applies: strain 15839 (ATCC). It is filed as cell-based, Acinetobacter baumannii. In a few lines:
as §3

The test system of experiment [13] is A. baumannii clinical isolate LAC 01. Put plainly: Antibiotic susceptibility profile. The experiment is classed as cell-based, Acinetobacter baumannii. Also noted: key: Resistance; Intermediate; Susceptible. The procedure, abridged: as §2
Experiment [14] has as its system A. baumannii clinical isolate NY H. In words: Antibiotic susceptibility profile. Also noted: key: Resistance; Intermediate; Susceptible. It is filed as cell-based, Acinetobacter baumannii. The procedure, abridged:
as §2

Experiment [15] deals with A. baumannii clinical isolate LAC 07. Put plainly: Antibiotic susceptibility profile. The experiment is classed as cell-based, Acinetobacter baumannii. Also on record: key: Resistance; Intermediate; Susceptible. In a few lines: as §2
For experiment [16], the system named is A. baumannii clinical isolate LAC 19. Put plainly: Antibiotic susceptibility profile. The experiment is classed as cell-based, Acinetobacter baumannii. Also noted: key: Resistance; Intermediate; Susceptible. The procedure, abridged:
as §2

In experiment [17] the test system is A. baumannii clinical isolate LAC 14. In words: Antibiotic susceptibility profile. Also noted: key: Resistance; Intermediate; Susceptible. It is filed as cell-based, Acinetobacter baumannii. In a few lines: as §2
Experiment [18] relates to A. baumannii clinical isolate LAC 08. In words: Antibiotic susceptibility profile. It is filed as cell-based, Acinetobacter baumannii. Also on record: key: Resistance; Intermediate; Susceptible. In a few lines: as §2
The subject of experiment [19] is A. baumannii clinical isolate LAC 09. Put plainly: Antibiotic susceptibility profile. It is filed as cell-based, Acinetobacter baumannii. Also noted: key: Resistance; Intermediate; Susceptible. The procedure, abridged: as §2
For experiment [20], the system named is A. baumannii clinical isolate LAC 10. In words: Antibiotic susceptibility profile. The experiment is classed as cell-based, Acinetobacter baumannii. Also noted: key: Resistance; Intermediate; Susceptible. The procedure, abridged:
as §2

Experiment [21] has as its system A. baumannii clinical isolate NY D. In words: Antibiotic susceptibility profile. The experiment is classed as cell-based, Acinetobacter baumannii. Also noted: key: Resistance; Intermediate; Susceptible. The procedure, abridged:
as §2

The subject of experiment [22] is A. baumannii clinical isolate LAC 18. Put plainly: Antibiotic susceptibility profile. The experiment is classed as cell-based, Acinetobacter baumannii. Also on record: key: Resistance; Intermediate; Susceptible. In a few lines:
as §2

Experiment [23] has as its system A. baumannii clinical isolate LAC 04. In words: Antibiotic susceptibility profile. The experiment is classed as cell-based, Acinetobacter baumannii. Also on record: key: Resistance; Intermediate; Susceptible. The procedure, abridged: as §2
Experiment [24] relates to A. baumannii clinical isolate LAC 06. In words: Antibiotic susceptibility profile. The experiment is classed as cell-based, Acinetobacter baumannii. Also noted: key: Resistance; Intermediate; Susceptible. In a few lines: as §2
The test system of experiment [25] is A. baumannii clinical isolate LAC 15. In words: Antibiotic susceptibility profile. It is filed as cell-based, Acinetobacter baumannii. Also on record: key: Resistance; Intermediate; Susceptible. The procedure, abridged:
as §2

In experiment [26] the test system is A. baumannii reference strain 19606. Put plainly: Antibiotic susceptibility profile. The following applies: strain 19606 (ATCC). Also on record: key: Resistance; Intermediate; Susceptible. It is filed as cell-based, Acinetobacter baumannii. In a few lines: as §3
Experiment [27] concerns A. baumannii clinical isolate NY F. In words: Antibiotic susceptibility profile. It is filed as cell-based, Acinetobacter baumannii. Also on record: key: Resistance; Intermediate; Susceptible. The procedure, abridged: as §2
The subject of experiment [28] is A. baumannii clinical isolate LAC 17. Put plainly: Antibiotic susceptibility profile. It is filed as cell-based, Acinetobacter baumannii. Also noted: key: Resistance; Intermediate; Susceptible. The procedure, abridged:
as §2

Experiment [29] concerns A. baumannii clinical isolate LAC 13. In words: Antibiotic susceptibility profile. It is filed as cell-based, Acinetobacter baumannii. Also on record: key: Resistance; Intermediate; Susceptible. The procedure, abridged:
as §2

In experiment [30] the test system is A. baumannii clinical isolate LAC 20. Put plainly: Antibiotic susceptibility profile. It is filed as cell-based, Acinetobacter baumannii. Also on record: key: Resistance; Intermediate; Susceptible. The procedure, abridged: as §2
Experiment [31] relates to A. baumannii clinical isolate LAC 16. Put plainly: Antibiotic susceptibility profile. The experiment is classed as cell-based, Acinetobacter baumannii. Also noted: key: Resistance; Intermediate; Susceptible. The procedure, abridged:
as §2

Experiment [32] concerns A. baumannii clinical isolate NY B. Put plainly: Antibiotic susceptibility profile. It is filed as cell-based, Acinetobacter baumannii. Also noted: key: Resistance; Intermediate; Susceptible. In a few lines:
as §2

Experiment [33] has as its system A. baumannii clinical isolate NY A. Put plainly: Antibiotic susceptibility profile. It is filed as cell-based, Acinetobacter baumannii. Also noted: key: Resistance; Intermediate; Susceptible. In a few lines: as §2
Experiment [34] has as its system A. baumannii clinical isolate LAC 05. In words: Antibiotic susceptibility profile. The experiment is classed as cell-based, Acinetobacter baumannii. Also on record: key: Resistance; Intermediate; Susceptible. In a few lines: as §2
For experiment [35], the system named is A. baumannii clinical isolate LAC 12. Put plainly: Antibiotic susceptibility profile. The experiment is classed as cell-based, Acinetobacter baumannii. Also on record: key: Resistance; Intermediate; Susceptible. In a few lines: as §2
In experiment [36] the target is MurG protein (Escherichia coli, UniProt P17443). Put plainly: Target-inhibitor interaction by SPR. It is filed as binding.
MurG protein, sequence (P17443 whole entry): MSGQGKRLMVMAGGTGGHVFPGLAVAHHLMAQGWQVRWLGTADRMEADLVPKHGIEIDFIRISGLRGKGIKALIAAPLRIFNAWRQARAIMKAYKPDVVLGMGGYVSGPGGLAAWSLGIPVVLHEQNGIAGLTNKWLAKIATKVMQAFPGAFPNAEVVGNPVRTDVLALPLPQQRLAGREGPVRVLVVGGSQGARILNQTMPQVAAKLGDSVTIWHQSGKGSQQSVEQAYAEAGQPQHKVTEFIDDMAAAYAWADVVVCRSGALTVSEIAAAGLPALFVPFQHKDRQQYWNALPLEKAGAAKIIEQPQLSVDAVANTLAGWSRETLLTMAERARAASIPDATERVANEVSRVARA
Text: as §1

Bovine Serum Albumin (BSA), sequence (P02769 25-607): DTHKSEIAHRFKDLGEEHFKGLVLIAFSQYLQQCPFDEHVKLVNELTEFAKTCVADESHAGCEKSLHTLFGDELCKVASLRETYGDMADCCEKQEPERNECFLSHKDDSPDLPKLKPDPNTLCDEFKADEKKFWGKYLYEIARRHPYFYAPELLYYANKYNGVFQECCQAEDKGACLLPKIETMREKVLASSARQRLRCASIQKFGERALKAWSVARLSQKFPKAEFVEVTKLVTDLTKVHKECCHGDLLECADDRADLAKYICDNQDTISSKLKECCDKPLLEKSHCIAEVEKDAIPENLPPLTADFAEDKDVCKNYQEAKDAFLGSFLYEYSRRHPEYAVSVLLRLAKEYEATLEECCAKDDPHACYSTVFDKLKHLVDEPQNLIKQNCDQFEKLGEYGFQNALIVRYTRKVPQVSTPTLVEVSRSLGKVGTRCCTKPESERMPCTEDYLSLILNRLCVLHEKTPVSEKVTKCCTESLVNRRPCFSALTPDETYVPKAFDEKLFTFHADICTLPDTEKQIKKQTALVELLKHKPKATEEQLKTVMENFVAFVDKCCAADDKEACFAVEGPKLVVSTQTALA

Consider `COc1cc(/C=C/C(=O)O)ccc1O` [ferulic acid], for which the “binding onto pre-immobilized BSA (SPR sensorgrams)” value in [1] was “binding”.

For `CN=C1NC(=O)[C@H]([C@H](C)c2c[nH]c3ccccc23)O1` [indolmycin], the “interaction with TrpS protein by SPR” value in [2] is recorded as “Specific interaction”.

Turning to Gentamicin, the Antibiotic susceptibility entry in experiment [3] was “R”; in experiment [4], “S”; in experiment [5], “R”; in experiment [6] it was “R”; in experiment [7] it was “I”; in experiment [8] it was “S”. Moreover, the Antibiotic susceptibility entry in experiment [9] is listed as “R”; in experiment [10], “S”; in experiment [11] it was “R”; in experiment [12], “R”; in [13] it was “R”; in [14], “R”. The Antibiotic susceptibility entry in experiment [15], in experiment [16], in experiment [17], in [18], in [19] and in experiment [20] was “R” throughout. The Antibiotic susceptibility result in experiment [21] is given as “R”; in experiment [22] it was “R”; in experiment [23], “R”; in experiment [24], “R”; in [25], “I”; in experiment [26], “R”. The Antibiotic susceptibility result in experiment [27] is reported as “R”; in experiment [28] it was “R”; in experiment [29], “I”; in experiment [30] it was “R”; in experiment [31], “R”; in [32] it was “R”. Besides, the Antibiotic susceptibility result in experiment [33], in [34] and in experiment [35] was “R” in each case.

In the case of ramoplanin, the “binding to MurG protein by SPR” value in experiment [36] is “Dose-dependent specific binding”.

The values are drawn from US20080090734A1, “DRUG SCREENING AND TARGET IDENTIFICATION USING SPR IMAGING OF TARGET PROTEIN ARRAYS” (The Trustees of California State University, priority 2006, published 2008).
